Data published in patent publication US11478461B2, “[1.1.1] bicyclo compounds as indoleamine 2,3-dioxygenase inhibitors” (Merck Sharp & Dohme Corp., priority 2018, dated 2022).

biological target: IDO1 (Homo sapiens, UniProt P14902); assay: IDO1 Cellular Assay in Hela Cells Stimulated with IFNγ; format: cell-based; details: IFNγ 100 ng/mL, 300 uM L-tryptophan, about 48 hours, fluorescence readout, read-out: IDO1 HELA Cell Assay, IC50
Description: Biological Assays IDO1 Cellular Assay in Hela Cells Stimulated with IFNγ
Hela cells were cultured in complete Hela culture medium ([…], 10% heat-inactivated fetal bovine serum) and expanded to about 1×10^9 cells. The cells were then collected and frozen down at 10×10^6 cells/vial in 1 mL frozen medium (90% complete Hela culture medium, 10% DMSO).
Compounds to be tested were serially diluted in ten 3-fold steps in DMSO starting from 10 mM DMSO stocks in Echo low volume plate(s). Compound dilutions or DMSO alone were then dispensed from the dilution plate(s) into Greiner black 384-well assay plate(s) (catalog #781086, 50 nL/well) using an Echo 550 acoustic liquid handler (Labcyte).
Frozen Hela cells were thawed and transferred into Hela assay medium (99% complete Hela culture medium, 1% Pen/Strep) with 20 mL medium/vial of cells. The cells were spun down at 250 g in a table top centrifuge for 5 min and suspended in same volume of Hela assay medium. […] Sterile L-tryptophan were added to the cells with final concentration of 300 uM L-tryptophan. A small aliquot (2 mL/plate) of Hela cells were set aside and were not treated with IFNγ, to serve as the Max-E control. The rest of Hela cells were added with sterile IFNγ (Cat #285-IF, R & D systems) with a final concentration of 100 ng/mL.
Hela cells with and without IFNγ were dispensed to the respective wells of 384-well assay plates containing the compounds. The plates were incubated for about 48 hours at a 37° C., 5% CO2 incubator. Afterwards, 12 μL of 0.5 M methyl isonipecotate in dimethyl sulfoxide were added into each well and the plates were sealed and incubated at 37° C. without CO2 overnight. The plates were centrifuged for 1 min at 200×g. The resulting fluorescence was measured in a Spectramax plate reader (Molecular Devices) with a 400 nm excitation filter and a 510 nm emission filter.
Potencies were calculated by […] least squares fit to the four parameter logistic IC50 equation.

IDO1, sequence (P14902 whole entry): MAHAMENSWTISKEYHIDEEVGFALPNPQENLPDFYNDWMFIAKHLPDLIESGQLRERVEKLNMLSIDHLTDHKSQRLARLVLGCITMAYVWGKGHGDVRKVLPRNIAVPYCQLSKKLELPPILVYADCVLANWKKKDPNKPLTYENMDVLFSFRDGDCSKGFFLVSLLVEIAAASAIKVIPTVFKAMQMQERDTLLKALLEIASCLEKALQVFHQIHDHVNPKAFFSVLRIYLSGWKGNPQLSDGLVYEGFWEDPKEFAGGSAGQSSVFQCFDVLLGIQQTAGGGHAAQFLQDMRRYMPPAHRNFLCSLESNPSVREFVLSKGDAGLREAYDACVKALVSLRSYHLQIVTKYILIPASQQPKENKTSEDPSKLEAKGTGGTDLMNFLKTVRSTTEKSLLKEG

| IC50 [nM] | SMILES |
| --- | --- |
| 248 | CC(C(=O)Nc1ccc(F)cc1)C12CC(NC(=O)c3ccn(C(F)F)n3)(C1)C2 (stereo not drawn) [Example 131, 1-(difluoromethyl)-N-[3-[2-(4-fluoroanilino)-1-methyl-2-oxo-ethyl]-1-bicyclo[1.1.1]pentanyl]pyrazole-3-carboxamide] |
| 59.6 | Cc1noc(C(=O)NC23CC(C(C)C(=O)Nc4ccc(F)cc4)(C2)C3)n1 (stereo not drawn) [Example 114, N-[3-[2-(4-fluoroanilino)-1-methyl-2-oxo-ethyl]-1-bicyclo[1.1.1]pentanyl]-3-methyl-1,2,4-oxadiazole-5-carboxamide] |
| 388 | CCOc1cccc(C(=O)NC23CC(C(C)C(=O)Nc4ccc(F)cc4)(C2)C3)n1 (stereo not drawn) [Example 138, 6-ethoxy-N-[3-[2-(4-fluoroanilino)-1-methyl-2-oxo-ethyl]-1-bicyclo[1.1.1]pentanyl]pyridin-1-ium-2-carboxamide] |
| 48.3 | C[C@H](C(=O)Nc1ccc(F)cc1)C12CC(NC(=O)c3ccc(C#N)c(Cl)c3)(C1)C2 [Example 150, (S)-3-chloro-4-cyano-N-(3-(1-((4-fluorophenyl)amino)-1-oxopropan-2-yl)bicyclo[1.1.1]pentan-1-yl)benzamide] |
| 16.9 | CC(C)(C(=O)Nc1ccc(F)cc1)C12CC(NC(=O)c3ccc(Cl)c(Cl)c3)(C1)C2 [Example 101, 3,4-Dichloro-N-(3-(1-((4-fluorophenyl)amino)-2-methyl-1-oxopropan-2-yl)bicyclo[1.1.1]pentan-1-yl)benzamide] |
| 69.2 | CC(C(=O)Nc1ccc(F)cc1)C12CC(NC(=O)c3cc4ccccn4c3)(C1)C2 (stereo not drawn) [Example 116, N-[3-[2-(4-fluoroanilino)-1-methyl-2-oxo-ethyl]-1-bicyclo[1.1.1]pentanyl]indolizine-2-carboxamide] |
| 153 | Cc1ccn2ncc(C(=O)NC34CC(C(C)C(=O)Nc5ccc(F)cc5)(C3)C4)c2c1 (stereo not drawn) [Example 124, N-[3-[2-(4-fluoroanilino)-1-methyl-2-oxo-ethyl]-1-bicyclo[1.1.1]pentanyl]-5-methyl-pyrazolo[1,5-a]pyridin-1-ium-3-carboxamide] |
| 252 | Cc1ccc(C(=O)NC23CC(C(C)C(=O)Nc4ccc(F)cc4)(C2)C3)cn1 (stereo not drawn) [Example 132, N-[3-[2-(4-fluoroanilino)-1-methyl-2-oxo-ethyl]-1-bicyclo[1.1.1]pentanyl]-6-methyl-pyridin-1-ium-3-carboxamide] |
| 318 | Cc1nc(C)c(C(=O)NC23CC(C(C)C(=O)Nc4ccc(F)cc4)(C2)C3)s1 (stereo not drawn) [Example 136, N-[3-[2-(4-fluoroanilino)-1-methyl-2-oxo-ethyl]-1-bicyclo[1.1.1]pentanyl]-2,4-dimethyl-thiazole-5-carboxamide] |
| 132 | Cc1cncc(C(=O)NC23CC(C(C)C(=O)Nc4ccc(F)cc4)(C2)C3)c1 (stereo not drawn) [Example 122, N-[3-[2-(4-fluoroanilino)-1-methyl-2-oxo-ethyl]-1-bicyclo[1.1.1]pentanyl]-5-methyl-pyridin-1-ium-3-carboxamide] |
| 34.2 | CC(C(=O)Nc1ccc(F)cc1)C12CC(NC(=O)c3cccc4cncn34)(C1)C2 (stereo not drawn) [Example 111, N-[3-[2-(4-fluoroanilino)-1-methyl-2-oxo-ethyl]-1-bicyclo[1.1.1]pentanyl]imidazo[1,5-a]pyridin-2-ium-5-carboxamide] |
| 17.7 | CCc1cc(C(=O)NC23CC(C(C)C(=O)Nc4ccc(F)cc4)(C2)C3)no1 (stereo not drawn) [Example 110, 5-ethyl-N-[3-[2-(4-fluoroanilino)-1-methyl-2-oxo-ethyl]-1-bicyclo[1.1.1]pentanyl]isoxazole-3-carboxamide] |
| 178 | COc1cc(C(=O)NC23CC(C(C)C(=O)Nc4ccc(F)cc4)(C2)C3)ccn1 (stereo not drawn) [Example 125, N-[3-[2-(4-fluoroanilino)-1-methyl-2-oxo-ethyl]-1-bicyclo[1.1.1]pentanyl]-2-methoxy-pyridin-1-ium-4-carboxamide] |
| 232 | CC(C(=O)Nc1ccc(F)cc1)C12CC(NC(=O)c3ccccn3)(C1)C2 (stereo not drawn) [Example 129, N-[3-[2-(4-fluoroanilino)-1-methyl-2-oxo-ethyl]-1-bicyclo[1.1.1]pentanyl]pyridin-1-ium-2-carboxamide] |

More lines, now with the values behind:

| SMILES | IC50 [nM] |
| --- | --- |
| Cc1ccc(C(=O)NC23CC([C@H](C)C(=O)Nc4ccc(F)cc4)(C2)C3)cc1Cl [Example 49, 3-chloro-N-[3-[(1S)-2-(4-fluoroanilino)-1-methyl-2-oxo-ethyl]-1-bicyclo[1.1.1]pentanyl]-4-methyl-benzamide] | 250 |
| C[C@H](C(=O)Nc1ccc(F)cc1)C12CC(NC(=O)c3ccc(Cl)c(F)c3)(C1)C2 [Example 47, 4-chloro-3-fluoro-N-[3-[(1S)-2-(4-fluoroanilino)-1-methyl-2-oxo-ethyl]-1-bicyclo[1.1.1]pentanyl]benzamide] | 152 |
| CC(C(=O)Nc1ccc(Cl)nc1)C12CC(NC(=O)c3ccc4c(c3)CC4)(C1)C2 (stereo not drawn) [Example 18, N-(3-(1-((6-chloropyridin-3-yl)amino)-1-oxopropan-2-yl)bicyclo[1.1.1]pentan-1-yl)bicyclo[4.2.0]octa-1(6),2,4-triene-3-carboxamide] | 2.91 |
| Cc1c(Cl)cccc1NC(=O)NC12CC([C@H](C)C(=O)Nc3ccc(F)cc3)(C1)C2 [Example 84, (S)-2-(3-(3-(3-chloro-2-methylphenyl)ureido)bicyclo [1.1.1]pentan-1-yl)-N-(4-fluorophenyl)propanamide] | 77.2 |
| Cc1noc(C(=O)NC23CC(C4(NC(=O)c5ccc(F)cc5)CC4)(C2)C3)n1 [Example 28, N-(3-(1-(4-fluorobenzamido)cyclopropyl)bicyclo[1.1.1]pentan-1-yl)-3-methyl-1,2,4-oxadiazole-5-carboxamide] | 72.2 |
| C[C@@H](C(=O)Nc1ccc(F)cc1)C12CC(NC(=O)OC(C)(C)C)(C1)C2 (single isomer, unassigned) [Example 31] | > 10000 |
| C[C@H](C(=O)Nc1ccc(F)cc1)C12CC(NC(=O)c3cc(F)cc(Cl)c3)(C1)C2 [Example 55, 3-chloro-5-fluoro-N-[3-[(1S)-2-(4-fluoroanilino)-1-methyl-2-oxo-ethyl]-1-bicyclo[1.1.1]pentanyl]benzamide] | 152 |
| Cc1ccc(C(=O)NC23CC([C@@H](C)C(=O)Nc4ccc(F)cc4)(C2)C3)cc1F [Example 41, 3-fluoro-N-[3-[(1R)-2-(4-fluoroanilino)-1-methyl-2-oxo-ethyl]-1-bicyclo[1.1.l]pentanyl]-4-methyl-benzamide] | 405 |
| Cc1ccnc(C(=O)NC23CC([C@H](C)C(=O)Nc4ccc(F)cc4)(C2)C3)n1 [Example 57, N-[3-[(1S)-2-(4-fluoroanilino)-1-methyl-2-oxo-ethyl]-1-bicyclo[1.1.1]pentanyl]-4-methyl-pyrimidin-1-ium-2-carboxamide] | 15.7 |
| C[C@H](C(=O)Nc1ccc(F)cc1)C12CC(NC(=O)c3cncc(C(F)(F)F)c3)(C1)C2 [Example 68, N-[3-[(1S)-2-(4-fluoroanilino)-1-methyl-2-oxo-ethyl]-1-bicyclo[1.1.1]pentanyl]-5-(trifluoromethyl)pyridin-1-ium-3-carboxamide] | 13.9 |
| O=C(NC12CC(C3(C(=O)Nc4ccc(F)cc4)CCC3)(C1)C2)c1cccc(Cl)c1 [Example 3, 3-Chloro-N-(3-(1-((4-fluorophenyl)carbamoyl)cyclobutyl)bicyclo [1.1.1]pentan-1-yl) Benzamide] | 6.29 |
| C[C@H](C(=O)Nc1ccc(F)cc1)C12CC(NC(=O)Nc3cccc4ccccc34)(C1)C2 [Example 86, (S)-N-(4-fluorophenyl)-2-(3-(3-(naphthalen-1-yl)ureido)bicyclo[1.1.1]pentan-1-yl)propanamide] | 84.8 |
| O=C(NC1(C23CC(NC(=O)c4cc(C(F)F)ccn4)(C2)C3)CC1)c1ccc(F)cc1 [Example 27, 4-(difluoromethyl)-N-(3-(1-(4-fluorobenzamido)cyclopropyl)bicyclo[1.1.1]pentan-1-yl)picolinamide] | 104 |
| C[C@H](C(=O)Nc1ccc(F)c(F)c1)C12CC(NC(=O)c3ccc(Cl)c(Cl)c3)(C1)C2 [Example 97, (S)-3,4-dichloro-N-(3-(1-((3,4-difluorophenyl)amino)-1-oxopropan-2-yl)bicyclo[1.1.1]pentan-1-yl)benzamide] | 260 |
| Cc1cc(C(=O)NC23CC([C@H](C)C(=O)Nc4ccc(F)cc4)(C2)C3)ccc1F [Example 54, 4-fluoro-N-[3-[(1S)-2-(4-fluoroanilino)-1-methyl-2-oxo-ethyl]-1-bicyclo[1.1.1]pentanyl]-3-methyl-benzamide] | 187 |
| C[C@H](C(=O)Nc1ccc(F)cc1)C12CC(NC(=O)Nc3cccc(Cl)c3)(C1)C2 [Example 81, (S)-2-(3-(3-(3-chlorophenyl)ureido)bicyclo [1.1.1]pentan-1-yl)-N-(4-fluorophenyl)propanamide] | 15.4 |
